From ChEMBL document CHEMBL1145669, “Antihepatotoxic principles of Atractylodes rhizomes” (1983)
One block for each molecule: values may come before it.

Tests used:
Hepatocyte [1] = experiment: Antihepatotoxic activity against galactosamine-induced cytotoxicity in rat hepatocytes assessed as GPT level at 1 mg/mL relative to control; assay type: functional
Hepatocyte [2] = experiment: Antihepatotoxic activity against carbon tetrachloride-induced cytotoxicity in rat hepatocytes assessed as GPT level at 1 mg/mL relative to control; assay type: functional
[3] = biological target: T1, Alanine aminotransferase 1 (Rattus norvegicus) (UniProt P25409); experiment: Effect on GPT in rat hepatocytes relative to control; assay type: cell-based; conditions: Hepatocyte
T1 sequence (whole entry): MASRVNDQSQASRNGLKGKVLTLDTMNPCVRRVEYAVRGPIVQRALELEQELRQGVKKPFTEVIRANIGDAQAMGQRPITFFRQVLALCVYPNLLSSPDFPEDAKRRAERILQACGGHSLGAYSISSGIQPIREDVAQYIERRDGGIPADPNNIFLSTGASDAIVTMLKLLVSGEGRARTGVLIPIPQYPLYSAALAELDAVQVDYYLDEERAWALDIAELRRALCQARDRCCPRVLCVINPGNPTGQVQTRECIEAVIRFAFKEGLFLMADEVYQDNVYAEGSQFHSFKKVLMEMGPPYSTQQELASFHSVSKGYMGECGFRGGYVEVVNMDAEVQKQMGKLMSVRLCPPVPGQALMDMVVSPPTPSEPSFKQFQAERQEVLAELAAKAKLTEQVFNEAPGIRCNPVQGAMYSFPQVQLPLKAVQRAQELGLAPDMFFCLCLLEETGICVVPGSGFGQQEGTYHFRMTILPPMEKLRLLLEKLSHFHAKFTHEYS

Hepatocyte [4] = experiment: Antihepatotoxic activity against carbon tetrachloride-induced cytotoxicity in rat hepatocytes assessed as GPT level at 0.01 mg/mL relative to control; assay type: functional
Hepatocyte [5] = experiment: Antihepatotoxic activity against carbon tetrachloride-induced cytotoxicity in rat hepatocytes assessed as GPT level at 0.1 mg/mL relative to control; assay type: functional
Hepatocyte [6] = experiment: Antihepatotoxic activity against galactosamine-induced cytotoxicity in rat hepatocytes assessed as GPT level at 0.01 mg/mL relative to control; assay type: functional
Hepatocyte [7] = experiment: Antihepatotoxic activity against galactosamine-induced cytotoxicity in rat hepatocytes assessed as GPT level at 0.1 mg/mL relative to control; assay type: functional

SMILES: C[C@H]1CCC[C@]2(C)CC(=O)[C@@H](C(C)(C)O)C[C@@H]12
Activity (Hepatocyte [1]): 81%
Activity (Hepatocyte [2]): 71%

SMILES: C[C@H]1CCC[C@]2(C)CC(O)[C@@H](C(C)(C)O)C[C@@H]12 (stereo partly drawn)
Activity (Hepatocyte [1]): 82%
Activity (Hepatocyte [2]): 44%

SMILES: C=C1CCC[C@]2(C)C[C@]3(O)OC(=O)C(C)=C3C[C@@H]12 [ATRACTYLENOLIDE III]
Activity (Hepatocyte [1]): 97%
Activity (Hepatocyte [2]): 103%

SMILES: C=C1CCC[C@]2(C)C[C@@H]3OC(=O)C(C)=C3C[C@@H]12 [ATRACTYLENOLIDE II]
Activity (Hepatocyte [1]): 94%
Activity (Hepatocyte [2]): 74%

SMILES: C=C1CCC[C@]2(C)C=C3OC(=O)C(C)=C3C[C@@H]12 [ATRACTYLENOLIDE I]
Activity (Hepatocyte [1]): 107%
Activity (Hepatocyte [2]): 68%

Activity [3]: 106%
SMILES: C=C1CCC[C@]2(C)Cc3occ(C)c3C[C@@H]12 [ATRACTYLON]
Activity (Hepatocyte [1]): 84%
Activity (Hepatocyte [4]): 67%
Activity (Hepatocyte [5]): 53%
Activity (Hepatocyte [2]): 25%
Activity (Hepatocyte [6]): 99%
Activity (Hepatocyte [7]): 92%

Activity [3]: 106%
SMILES: C=C1CCC[C@]2(C)CC[C@@H](C(C)(C)O)C[C@@H]12 [BETA-EUDESMOL]
Activity (Hepatocyte [1]): 79%
Activity (Hepatocyte [4]): 83%
Activity (Hepatocyte [5]): 70%
Activity (Hepatocyte [2]): 53%
Activity (Hepatocyte [6]): 104%
Activity (Hepatocyte [7]): 94%

SMILES: C[C@H]1CCC[C@]2(C)CC[C@@H](C(C)(C)O)C[C@H]12 [DIHYDROEUDESMOL]
Activity (Hepatocyte [1]): 83%
Activity (Hepatocyte [2]): 58%

SMILES: CC1CCC[C@H](C)[C@@]12CC[C@@H](C(C)(C)O)C2 (stereo partly drawn) [DIHYDROHINESOL]
Activity (Hepatocyte [1]): 35%
Activity (Hepatocyte [2]): 67%

SMILES: OCc1ccco1 [FURFURYL ALCOHOL]
Activity (Hepatocyte [4]): 102%
Activity (Hepatocyte [5]): 101%
Activity (Hepatocyte [2]): 90%

Activity [3]: 105%
SMILES: CC1=CCC[C@H](C)[C@@]12CC[C@@H](C(C)(C)O)C2 [HINESOL]
Activity (Hepatocyte [1]): 73%
Activity (Hepatocyte [4]): 79%
Activity (Hepatocyte [5]): 62%
Activity (Hepatocyte [2]): 31%
Activity (Hepatocyte [6]): 101%
Activity (Hepatocyte [7]): 99%
